Patent USRE39591E1, “6-O-substituted ketolides having antibacterial activity” (Abbott Laboratories, priority 1996, dated 2007)
In brackets after ≈: the same amount, converted by molar mass.

Test system: up to 32 different microorganisms
Experiment: in vitro antibacterial activity (MIC), agar dilution on Brain Heart Infusion (BHI) agar with Steers replicator
Assay type: cell-based
Conditions: unit assumed
Method: Representative compounds of the present invention were assayed in vitro for antibacterial activity as follows: Twelve petri dishes containing successive aqueous dilutions of the test compound mixed with 10 mL of sterilized Brain Heart Infusion (BHI) agar (Difco 0148-01-5) were prepared. Each plate was inoculated with 1:100 (or 1:10 for slow-growing strains, such as Micrococcus and Streptococcus) dilutions of up to 32 different microorganisms, using a Steers replicator block. The inoculated plates were incubated at 35°-37° C. for 20 to 24 hours. In addition, a control plate, using BHI agar containing no test compound, was prepared and incubated at the beginning and end of each test.
An additional plate containing a compound having known susceptibility patterns for the organisms being tested and belonging to the same antibiotic class as the test compound was also prepared and incubated as a further control, as well as to provide test-to-test comparability. Erythromycin A was used for this purpose.
After incubation, each plate was visually inspected. The minimum inhibitory concentration (MIC) was defined as the lowest concentration of drug yielding no growth, a slight haze, or sparsely isolated colonies on the inoculum spot as compared to the growth control.

[1] = Candida albicans CCH 442 (code TT)
[2] = Enterococcus faecism ATCC 8043 (code II)
[3] = Escherichia coli DC-2 (code SS)
[4] = Escherichia coli JUHL (code QQ)
[5] = Haemophilis influenzae DILL AMP R (code WW)
[6] = Micrococcus luteus ATCC 4698 (code PP)
[7] = Micrococcus luteus ATCC 9341 (code OO)
[8] = Mycobacterium smegmatis ATCC 114 (code UU)
[9] = Nocardia Asteroides ATCC9970 (code VV)
[10] = Staphylococcus aureus 1775 (code GG)
[11] = Staphylococcus aureus A5177 (code BB)
[12] = Staphylococcus aureus A-5278 (code CC)
[13] = Staphylococcus aureus ATCC 6538P (code AA)
[14] = Staphylococcus aureus CMX 553 (code FF)
[15] = Staphylococcus aureus CMX 642A (code DD)
[16] = Staphylococcus aureus NCTC10649M (code EE)
[17] = Staphylococcus epidermidis 3519 (code HH)
[18] = Streptococcus Pneumonia 5649 (code ZZA)
[19] = Streptococcus Pneumonia 5979 (code ZZ)
[20] = Streptococcus Pneumonia ATCC6303 (code XX)
[21] = Streptococcus Pneumonia GYR 1171 (code YY)
[22] = Streptococcus agalactiae CMX 508 (code KK)
[23] = Streptococcus bovis A-5169 (code JJ)
[24] = Streptococcus pyogenes 930 (code MM)
[25] = Streptococcus pyogenes EES61 (code LL)
[26] = Streptococcus pyogenes PIU 2548 (code NN)

| SMILES | MIC [1] | MIC [2] | MIC [3] | MIC [4] | MIC (Escherichia coli SS (code RR)) | MIC [5] | MIC [6] | MIC [9] | MIC [10] | MIC [11] | MIC [12] | MIC [13] | MIC [14] | MIC [15] | MIC [16] | MIC [17] | MIC [18] | MIC [19] | MIC [20] | MIC [22] | further results |
| --- | --- | --- | --- | --- | --- | --- | --- | --- | --- | --- | --- | --- | --- | --- | --- | --- | --- | --- | --- | --- | --- |
| CC[C@H]1OC(=O)[C@H](C)C(=O)[C@H](C)[C@@H](O[C@@H]2O[C@H](C)C[C@H](N(C)C)[C@H]2O)[C@@](C)(OCCNCCc2ccccc2)C[C@@H](C)C(=O)[C@H](C)[C@@H](O)[C@]1(C)O [Example 10] | > 100 µg/mL | 6.2 µg/mL (≈ 8.6 µM) | > 100 µg/mL | > 100 µg/mL | 1.56 µg/mL (≈ 2.16 µM) | 64 µg/mL (≈ 88.8 µM) | 1.56 µg/mL (≈ 2.16 µM) | 1.56 µg/mL (≈ 2.16 µM) | > 100 µg/mL | 6.2 µg/mL (≈ 8.6 µM) | > 100 µg/mL | 6.2 µg/mL (≈ 8.6 µM) | 6.2 µg/mL (≈ 8.6 µM) | 6.2 µg/mL (≈ 8.6 µM) | 6.2 µg/mL (≈ 8.6 µM) | 6.2 µg/mL (≈ 8.6 µM) | 4 µg/mL (≈ 5.55 µM) | > 128 µg/mL | 2 µg/mL (≈ 2.77 µM) | 1.56 µg/mL (≈ 2.16 µM) | MIC [7]: 0.2 µg/mL (≈ 0.277 µM); MIC [8]: 12.5 µg/mL (≈ 17.3 µM); MIC [21]: 2 µg/mL (≈ 2.77 µM); MIC [23]: 0.2 µg/mL (≈ 0.277 µM); MIC [24]: > 100 µg/mL; MIC [25]: 0.39 µg/mL (≈ 0.541 µM); MIC [26]: 1.56 µg/mL (≈ 2.16 µM) |
| CC[C@H]1OC(=O)[C@H](C)C(=O)[C@H](C)[C@@H](O[C@@H]2O[C@H](C)C[C@H](N(C)C)[C@H]2O)[C@@](C)(OCCNCc2ccncc2)C[C@@H](C)C(=O)[C@H](C)[C@@H](O)[C@]1(C)O [Example 12, Compound of Formula (VIII): X is O, R is —CH2CH2NHCH2-(4-pyridyl)] | > 100 µg/mL | 1.56 µg/mL | > 100 µg/mL | > 100 µg/mL | 0.39 µg/mL | 32 µg/mL | 0.78 µg/mL | 0.39 µg/mL | > 100 µg/mL | 3.1 µg/mL | > 100 µg/mL | 6.2 µg/mL | 6.2 µg/mL | 6.2 µg/mL | 6.2 µg/mL | 12.5 µg/mL | 2 µg/mL | > 128 µg/mL | 0.25 µg/mL | 0.78 µg/mL | MIC [7]: 0.39 µg/mL; MIC [23]: 0.2 µg/mL; MIC [24]: > 100 µg/mL; MIC [25]: 0.39 µg/mL; MIC [26]: 1.56 µg/mL |
| CC[C@H]1OC(=O)[C@H](C)C(=O)[C@H](C)[C@@H](O[C@@H]2O[C@H](C)C[C@H](N(C)C)[C@H]2O)[C@@](C)(OCC=Cc2ccccc2)C[C@@H](C)C(=O)[C@H](C)[C@@H](O)[C@]1(C)O [Example 14, Compound of Formula (VIII): X is O, R is —CH2CH═CH-Phenyl] | > 100 µg/mL | 0.78 µg/mL | > 100 µg/mL | > 100 µg/mL | 6.2 µg/mL | 128 µg/mL | 0.78 µg/mL | 3.1 µg/mL | > 100 µg/mL | 1.56 µg/mL | > 100 µg/mL | 1.56 µg/mL | 3.1 µg/mL | 3.1 µg/mL | 3.1 µg/mL | 1.56 µg/mL | 2 µg/mL | 128 µg/mL | 1 µg/mL | 0.2 µg/mL | MIC [7]: 0.39 µg/mL; MIC [8]: 3.1 µg/mL; MIC [21]: 0.25 µg/mL; MIC [23]: 0.2 µg/mL; MIC [24]: 50 µg/mL; MIC [25]: 0.39 µg/mL; MIC [26]: 0.78 µg/mL |
| CC[C@H]1OC(=O)[C@H](C)C(=O)[C@H](C)[C@@H](O[C@@H]2O[C@H](C)C[C@H](N(C)C)[C@H]2O)[C@@](C)(OCCCc2ccccc2)C[C@@H](C)C(=O)[C@H](C)[C@@H](O)[C@]1(C)O [Example 15, Compound of Formula (VIII): X is O, R is —CH2CH2CH2-Phenyl] | > 100 µg/mL | 1.56 µg/mL | > 100 µg/mL | > 100 µg/mL | 6.2 µg/mL | > 64 µg/mL | 3.1 µg/mL | 1.56 µg/mL | > 100 µg/mL | 6.2 µg/mL | > 100 µg/mL | 6.2 µg/mL | 6.2 µg/mL | 6.2 µg/mL | 6.2 µg/mL | 6.2 µg/mL | 1 µg/mL | 32 µg/mL | 1 µg/mL | 0.2 µg/mL | MIC [7]: 0.78 µg/mL; MIC [8]: 6.2 µg/mL; MIC [21]: 1 µg/mL; MIC [23]: 0.2 µg/mL; MIC [24]: 100 µg/mL; MIC [25]: 0.39 µg/mL; MIC [26]: 3.1 µg/mL |
| CC[C@H]1OC(=O)[C@H](C)C(=O)[C@H](C)[C@@H](O[C@@H]2O[C@H](C)C[C@H](N(C)C)[C@H]2O)[C@@](C)(OCC=Cc2ccc(OC)cc2)C[C@@H](C)C(=O)[C@H](C)[C@@H](O)[C@]1(C)O [Example 16, Compound of Formula (VIII): X is O, R is —CH2CH═CH-(4-methoxyphenyl)] | > 100 µg/mL | 0.78 µg/mL | > 100 µg/mL | > 100 µg/mL | 6.2 µg/mL | 128 µg/mL | 0.78 µg/mL | 1.56 µg/mL | > 100 µg/mL | 1.56 µg/mL | > 100 µg/mL | 1.56 µg/mL | 1.56 µg/mL | 1.56 µg/mL | 1.56 µg/mL | 1.56 µg/mL | 2 µg/mL | 128 µg/mL | 1 µg/mL | 0.39 µg/mL | MIC [7]: 0.2 µg/mL; MIC [8]: 3.2 µg/mL; MIC [21]: 0.25 µg/mL; MIC [23]: 0.2 µg/mL; MIC [24]: > 100 µg/mL; MIC [25]: 0.39 µg/mL; MIC [26]: 0.78 µg/mL |
| CC[C@H]1OC(=O)[C@H](C)C(=O)[C@H](C)[C@@H](O[C@@H]2O[C@H](C)C[C@H](N(C)C)[C@H]2O)[C@@](C)(OCC=Cc2ccc(Cl)cc2)C[C@@H](C)C(=O)[C@H](C)[C@@H](O)[C@]1(C)O [Example 17, Compound of Formula (VIII): X is O, R is —CH2CH═CH-(4-chlorophenyl)] | 50 µg/mL | 1.56 µg/mL | > 100 µg/mL | > 100 µg/mL | 12.5 µg/mL | 64 µg/mL | 0.78 µg/mL | 3.1 µg/mL | 50 µg/mL | 1.56 µg/mL | 50 µg/mL | 1.56 µg/mL | 1.56 µg/mL | 1.56 µg/mL | 1.56 µg/mL | 1.56 µg/mL | 2 µg/mL | 32 µg/mL | 1 µg/mL | 0.78 µg/mL | MIC [7]: 0.39 µg/mL; MIC [8]: 3.1 µg/mL; MIC [21]: 0.5 µg/mL; MIC [23]: 0.39 µg/mL; MIC [24]: 25 µg/mL; MIC [25]: 0.78 µg/mL; MIC [26]: 0.78 µg/mL |
| CC[C@H]1OC(=O)[C@H](C)C(=O)[C@H](C)[C@@H](O[C@@H]2O[C@H](C)C[C@H](N(C)C)[C@H]2O)[C@@](C)(OCC=Cc2cnc3ccccc3c2)C[C@@H](C)C(=O)[C@H](C)[C@@H](O)[C@]1(C)O [Example 18, Compound of Formula (VIII): X is O, R is —CH2CH═CH-(3-quinolyl)] | > 100 µg/mL | 0.2 µg/mL | > 100 µg/mL | > 100 µg/mL | 0.39 µg/mL | 16 µg/mL | 0.2 µg/mL | 0.1 µg/mL | > 100 µg/mL | 0.2 µg/mL | > 100 µg/mL | 0.2 µg/mL | 0.2 µg/mL | 0.2 µg/mL | 0.2 µg/mL | 0.2 µg/mL | 0.25 µg/mL | 128 µg/mL | 0.03 µg/mL | 0.2 µg/mL | MIC [24]: 100 µg/mL; MIC [25]: 0.2 µg/mL; MIC [26]: 0.1 µg/mL |
